Test system: soil urease
Assay: Soil urease inhibition efficacy test (urea remaining after incubation in soil)
Type: biochemical
Conditions: 40 micrograms per gram soil, incubated at 25° C. for three days, run in triplicate
Procedure: Efficacy tests were conducted to evaluate the efficacy of certain representative oxidized sulfur derivatives of diaminophosphinyl compounds as urease inhibitors. The inhibition tests were run in New York (Cazenovia Silt loam, pH 7.3) and Wisconsin (Plano silt loam pH 5.3) soils. Evaluations (run in triplicate) consisted of applying 800 micrograms of the test compound in 5 mL of water and 42.8 mg of urea in 1 mL of water to 20 g of air-dry soil in a glass bottle. The bottle was capped with perforated aluminum foil and incubated at 25° C. for three days prior to extraction with 100 mL of a 2M potassium chloride solution containing 0.5 mg of phenylmercuric acetate. The extracts were then analyzed for remaining urea using an autoanalyzer. Percent inhibition was calculated as [formula] where A is urea recovered from unincubated sample (urea added to soil and immediately extracted); B is urea recovered from inhibited sample; and C is urea recovered from the control (uninhibited sample).

[1] = Cazenovia silt loam (New York) pH 7.3
[2] = Wisconsin (Plano silt loam) pH 5.3

Structure (SMILES)	% Inhibition [1] [%]	% Inhibition [2] [%]
NP(N)(=O)NS(=O)(=O)c1ccccc1 [N-(Diaminophosphinyl)benzenesulfonamide]	91	23
Cc1ccc(S(=O)(=O)NP(N)(N)=O)cc1 [N-(Diaminophosphinyl)-p-toluene-sulfonamide]	86	51

Reference: patent US4629491A, “Oxidized sulfur derivatives of diaminophosphinyl compounds as urease inhibitors and urease inhibited urea based fertilizer compositions” (Allied Corporation, priority 1983, dated 1986)
